The term Kd denotes a measure of binding affinity in units of concentration. A high value points to weaker binding. The IC50 is the concentration that gives 50% inhibition. Low readings indicate greater potency, high ones weaker potency.

For one test, the target named is T1, Human (6-His)Sortilin (Homo sapiens, UniProt Q99523).
T1 construct: purchased RnD Systems
T1 sequence (Q99523 78-755 limits assumed): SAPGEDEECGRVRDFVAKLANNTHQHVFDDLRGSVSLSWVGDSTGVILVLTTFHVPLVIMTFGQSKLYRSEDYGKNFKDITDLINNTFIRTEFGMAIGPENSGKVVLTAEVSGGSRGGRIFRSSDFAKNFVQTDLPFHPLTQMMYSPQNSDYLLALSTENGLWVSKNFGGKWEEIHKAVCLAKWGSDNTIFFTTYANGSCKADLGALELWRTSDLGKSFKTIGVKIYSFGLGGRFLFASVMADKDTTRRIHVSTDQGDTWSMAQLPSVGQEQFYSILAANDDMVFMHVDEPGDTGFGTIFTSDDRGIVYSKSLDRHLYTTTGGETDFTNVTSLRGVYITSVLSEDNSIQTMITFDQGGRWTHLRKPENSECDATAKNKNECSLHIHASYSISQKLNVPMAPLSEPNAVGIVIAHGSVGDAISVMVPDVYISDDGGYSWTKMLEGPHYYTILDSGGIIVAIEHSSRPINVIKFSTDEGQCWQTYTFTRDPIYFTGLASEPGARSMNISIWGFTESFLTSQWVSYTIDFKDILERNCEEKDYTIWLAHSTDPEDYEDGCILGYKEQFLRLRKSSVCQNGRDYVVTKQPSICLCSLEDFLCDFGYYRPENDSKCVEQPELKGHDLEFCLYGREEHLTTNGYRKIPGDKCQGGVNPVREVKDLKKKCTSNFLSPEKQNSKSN
The test can be described thus: Human Sortilin GCI (Grating-Coupled Interferometry) binding assay. As to conditions: Creoptix WAVE-RAPID, single concentration (usually 1 µM, 10 µM or 100 µM), immobilised Human (6-His)Sortilin, 1:1 kinetic binding model.

The target in the next test is T2, h-Sortilin (Homo sapiens, UniProt Q99523).
T2 sequence (Q99523 78-831): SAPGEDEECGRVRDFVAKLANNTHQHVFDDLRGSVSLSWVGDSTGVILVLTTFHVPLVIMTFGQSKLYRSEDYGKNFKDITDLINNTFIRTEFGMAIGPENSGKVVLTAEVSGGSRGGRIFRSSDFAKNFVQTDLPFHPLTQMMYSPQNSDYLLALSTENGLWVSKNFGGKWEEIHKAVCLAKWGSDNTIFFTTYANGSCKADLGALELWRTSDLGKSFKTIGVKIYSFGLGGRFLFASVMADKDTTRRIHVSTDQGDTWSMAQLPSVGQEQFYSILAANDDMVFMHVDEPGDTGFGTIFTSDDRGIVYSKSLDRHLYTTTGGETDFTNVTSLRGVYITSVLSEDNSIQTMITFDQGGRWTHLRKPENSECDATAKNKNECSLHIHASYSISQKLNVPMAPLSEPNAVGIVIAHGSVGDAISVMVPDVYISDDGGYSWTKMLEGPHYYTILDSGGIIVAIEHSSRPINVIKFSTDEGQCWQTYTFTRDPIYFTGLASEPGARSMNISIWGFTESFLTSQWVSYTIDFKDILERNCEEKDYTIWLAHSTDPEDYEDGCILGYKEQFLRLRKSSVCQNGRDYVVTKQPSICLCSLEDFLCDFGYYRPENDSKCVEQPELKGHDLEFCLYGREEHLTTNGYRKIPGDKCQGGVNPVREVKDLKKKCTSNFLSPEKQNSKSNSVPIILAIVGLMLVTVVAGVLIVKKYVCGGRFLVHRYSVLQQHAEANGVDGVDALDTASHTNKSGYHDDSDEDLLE
Briefly: Neurotensin scintillation proximity assay (SPA). As to conditions: displacement of [3H]-neurotensin binding to h-Sortilin; 150 nM 6his-Sortilin, 5 nM [3H]-Neurotensin; average of at least 2 determinations. Here is the method: NTS, which is a 13 amino acid neuropeptide, is a sortilin ligand.
Compound affinity was determined by measuring the displacement of [^3H]-neurotensin binding to h-Sortilin in SPA format. Total volume of 40 µl in 50 mM HEPES pH 7.4 assay buffer containing 100 mM NaCl, 2.0 mM CaCl2, 0.1% BSA and 0.1% Tween-20. Compound pre-incubation for 30 minutes at room temperature with 150 nM of 6his-Sortilin before 5 nM [3H]-Neurotensin and Ni chelate imaging beads (Perkin Elmer) were added, after 6 hours the plate was read on a ViewLux with 360 s exposure time. Dose-response evaluation of compounds was performed with 8 concentrations of drugs (covering 3 decades). IC50 values were calculated by nonlinear regression using the sigmoid concentration-response (variable slope) using CDD Vault software. All values reported are average of at least 2 determinations.
(In general: In a scintillation proximity assay essentially only radioactivity close to the scintillant gives light.)

The compound `CC(C)(C)CCC(Nc1ccccn1)c1nn[nH]n1` (racemic) [Example 68, N-2-pyridyl[4,4-dimethyl-1-(2H-tetraazol-5-yl)pentyl]amine] yielded a Kd on Human (6-His)Sortilin of 7570 nM. The half-inhibitory concentration (IC50) at h-Sortilin worked out at 10000 nM.
The like results for `CC(C)(C)CCC(Nc1cccnc1)c1nn[nH]n1` (racemic) [Example 69, N-3-pyridyl[4,4-dimethyl-1-(2H-tetraazol-5-yl)pentyl]amine] were, in that order, 1800 nM and 10000 nM.
With `CC(C)(C)CC[C@@H](Nc1cccnc1)c1nn[nH]n1` (single isomer, unassigned) [Example 100], on Human (6-His)Sortilin, the affinity, expressed as Kd, was 6220 nM.
Turning to `CC(C)(C)CC[C@H](Nc1ccccn1)C(=O)O` [Example 2, (S)-5,5-dimethyl-2-(2-pyridylamino)hexanoic acid], the equilibrium dissociation constant (Kd) at Human (6-His)Sortilin worked out at 2230 nM. The same compound gave a half-maximal inhibitory concentration (IC50) at h-Sortilin of 2200 nM.
With `CC(C)(C)CC[C@H](Nc1cnccn1)C(=O)O` [Example 4, (S)-5,5-dimethyl-2-(2-pyrazinylamino)hexanoic acid], binding on Human (6-His)Sortilin was put at a Kd of 5570 nM. Further, at h-Sortilin, the half-inhibitory concentration (IC50) was found to be 1080 nM.
The like results for `CC(C)(C)CC[C@H](Nc1ncccn1)C(=O)O` [Example 5, (S)-5,5-dimethyl-2-(2-pyrimidinylamino)hexanoic acid] were, in that order, 13200 nM and 1190 nM.
The like results for `CC(C)(C)CC[C@H](Nc1cncnc1)C(=O)O` [Example 6, (S)-5,5-dimethyl-2-(5-pyrimidinylamino)hexanoic acid] were, in that order, 4050 nM and 1240 nM.
The like results for `CC(C)(C)CC[C@H](Nc1ccncn1)C(=O)O` [Example 7, (S)-5,5-dimethyl-2-(4-pyrimidinylamino)hexanoic acid] were, in that order, 8280 nM and 1140 nM.
`CC(C)(C)CC[C@H](Nc1ncnc2ccccc12)C(=O)O` [Example 8, (S)-5,5-dimethyl-2-(4-quinazolinylamino)hexanoic acid] yielded a dissociation constant Kd at Human (6-His)Sortilin of 116 nM. On h-Sortilin, this compound returned a half-inhibitory concentration (IC50) of 325 nM.
The corresponding values for `Cc1nccc(N[C@@H](CCC(C)(C)C)C(=O)O)n1` [Example 23, (S)-5,5-dimethyl-2-(2-methyl-4-pyrimidinylamino)hexanoic acid] are 108 nM and 1310 nM.
The like results for `Cc1cc(N[C@@H](CCC(C)(C)C)C(=O)O)ncn1` [Example 24, (S)-5,5-dimethyl-2-(6-methyl-4-pyrimidinylamino)hexanoic acid] were, in that order, 429 nM and 2870 nM.
On Human (6-His)Sortilin, `Cc1cc(N[C@@H](CCC(C)(C)C)C(=O)O)nc(C)n1` [Example 25, (S)-2-(2,6-dimethyl-4-pyrimidinylamino)-5,5-dimethylhexanoic acid] yielded a Kd of 499 nM. This compound registered an IC50 at h-Sortilin of 1560 nM.
`Cc1cccc2c(N[C@@H](CCC(C)(C)C)C(=O)O)ncnc12` [Example 26, (S)-5,5-dimethyl-2-(8-methyl-4-quinazolinylamino)hexanoic acid] came in with an equilibrium dissociation constant (Kd) at Human (6-His)Sortilin of 54.1 nM. Also, the half-maximal inhibitory concentration (IC50) at h-Sortilin came to 1830 nM.
In turn, `Cc1cncc(N[C@@H](CCC(C)(C)C)C(=O)O)n1` [Example 27, (S)-5,5-dimethyl-2-(6-methyl-2-pyrazinylamino)hexanoic acid] had a Kd on Human (6-His)Sortilin of 664 nM. Moreover, the IC50 on h-Sortilin is 510 nM.
The corresponding values for `CC(C)(C)CC[C@H](Nc1cncc(Oc2ccccc2)n1)C(=O)O` [Example 28, (S)-5,5-dimethyl-2-(6-phenoxy-2-pyrazinylamino)hexanoic acid] are 525 nM and 670 nM.
At Human (6-His)Sortilin, `CC(C)(C)CC[C@H](Nc1cncc2ccccc12)C(=O)O` [Example 29, (S)-2-(isoquinolin-4-ylamino)-5,5-dimethylhexanoic acid] showed a Kd of 57.8 nM.
At Human (6-His)Sortilin, `CC(C)(C)CC[C@H](Nc1cccnc1)C(=O)O` [Example 31, (S)-5,5-dimethyl-2-(3-pyridylamino)hexanoic acid] had a Kd of 1710 nM. The compound also had a half-maximal inhibitory concentration (IC50) on h-Sortilin of 1810 nM.
On Human (6-His)Sortilin, “N-phenyl[4,4-dimethyl-1-(2H-tetraazol-5-yl)pentyl]amine [Example 39]” yielded a dissociation constant (Kd) of 2840 nM.

The values above are taken from patent EP4428121A1, “MODULATORS OF SORTILIN ACTIVITY” (Vesper Bio Aps, priority 2023, dated 2024).
